In publication PMC8568970 (Nature Communications, 2021):
Entries after “also recorded” stand apart in the source; their conditions may differ. Ends that are not written are not given here. * marks the point of attachment. Octanoyl = CCCCCCCC(=O)*

Assays:
GHSR mutants [1] = assay: HTRF-monitored binding of labeled ghrelin, GHSR mutants (results in words); parameters: species or system human; details: Supplementary Fig. 3b
Procedure: (§1) Competition ligand-binding assays were performed using the HTRF signal between GHSR labeled with Lumi-4 Tb and the JMV2959 antagonist labeled with dy647. Increasing concentrations in the competing compound were added to a receptor: antagonist mixture (100 nM concentration range). In all cases, the ligand: receptor mixtures were incubated for 30 min at 15 °C and the HTRF signal recorded using a Cary Eclipse spectrofluorimeter (Varian) with an excitation wavelength set at 337 nm and an emission wavelength at 665 and 620 nm. All binding data were analyzed using Prism 8.0.
GHSR mutants. (a) Surface expression levels of GHSR mutants tested in Figure 2. For each GHSR mutant, the expression level was determined by measuring the fluorescence intensity of transfected HEK-293 cells stained with a fluorescent anti-FLAG antibody that could bind to the N-terminal FLAG peptide of each GHSR construct. BG means background, representing results from non-transfected HEK-293 cells. Each column represents results shown as mean ± s.d. from 3 wells of cells transiently transfected with each GHSR mutant. (b) HTRF-monitored binding of […]
POPC:POPG lipid discs. The binding data are presented as variations in the HTRF ratio as a […]
Each data point represents mean ± SD of three […]
ibutamoren (yellow). The receptors are colored in slate and green, respectively. ECL2 and ECL3 show notable conformational differences. […]

[2] = system: GHSR and Gi signaling pathway; details: cited from earlier work
Excerpt: The GHSR and Gi signaling ...

wild type GHSR [3] = assay: HTRF competition between dy647-JMV2959 and ghrelin in lipid discs; format: binding, human
Excerpt: (§2) Human GHSR was expressed in E. coli inclusion bodies, folded in amphipol A8-35, and then inserted into lipid nanodiscs formed with MSP1E3D1 and POPC:POPG (3:2 molar ratio) containing or not 10% cholesterol, as described in Damian et al.[54]. After insertion into nanodiscs, active receptor fractions were purified using affinity chromatography with the biotinylated version of the JMV2959 antagonist immobilized on a streptavidin column. GHSR containing disks were separated from aggregates and possible trace amounts of the ligand through a size-exclusion chromatography step on a Superdex 200 increase 10/300 GL column (GE Healthcare) using a 25 mM Na-HEPES, 150 mM NaCl, 0.5 mM EDTA, pH 7.5 buffer as the eluent. GTP turnover was assessed as described previously. All experiments were carried out at 15 °C. The receptor was first incubated with the isolated G protein and, when applicable, the ligand (10 µM) for 30 min in a 25 mM HEPES, 100 mM NaCl, 5 mM MgCl2, pH 7.5 buffer. GTP turnover was then started by adding GTP (5 µM) and GDP (10 µM), and the amount of remaining GTP was assessed after 10 min incubation at 15 °C using the GTPase-Glo assay (Promega). The signal was normalized in each case to that in the absence of receptor (100%).
as §1
(§3) Supplementary Figure 2. Potential cholesterol binding sites and effects of cholesterol in GHSR signaling. (a) Cryo-EM density maps of two cholesterol molecules modeled in the structure of ghrelin-GHSR-Gi.GHSR is colored in slate. Cholesterol molecules are shown as grey sticks. […]

GHSR mutants [4] = assay: Calcium mobilization assay, GHSR mutants (results in words); format: cell-based, human
Procedure: (§4) Calcium mobilization assay to measure GHSR signaling was carried out in HEK-293T cells cultured in DMEM supplemented with 10% (vol/vol) FBS (Fisher Scientific). The cDNAs encoding human GHSR was cloned into the pcDNA3.1(+) vector (Invitrogen) with a FLAG peptide fused to the N terminus. Mutant variants were then generated by site-directed mutagenesis and all mutants were fully sequenced. Various GHSR constructs were transfected to HEK-293T cells using FuGENE Transfection Reagent (Promega). The surface expression of wtGHSR and various mutants in HEK-293T cells was determined and confirmed using FACS with a fluorescent FLAG M1 antibody (homemade).
(§5) To measure the agonist-induced calcium release, 50 μL dye loading buffer made of Hank’s Balanced Salt Solution (HBSS) with 5 μM Fluo-4 (Sigma), 0.2% pluronicacid, and 1% FBS was added to the GHSR-expressing cells and incubated for 1 h at 37 °C. Cells were then washed twice with HBSS buffer and left at room temperature in 50 μL HBBS. Fluo-4 fluorescence intensity (excitation 480 nm, emission 520 nm) was measured as an indicator of calcium release in a multimode reader (Spark 20 M, TECAN). […] The data were analyzed in GraphPad Prism 8 using the one site dose-response stimulation method. Results were presented as mean ± S.D. from three independent experiments.

GHSR [5] = details: signaling through GHSR, under nutritional or physiological challenges; cited from earlier work
Excerpt: It mainly signals through the growth hormone secretagogue receptor (GHSR, or ghrelin receptor), a class A G protein-coupled receptor (GPCR). […] In addition, GHSR plays critical role in the mod ...

GHSR mutants [6] = details: cited from earlier work
GHSR mutant R102A = assay: Calcium mobilization assay, R102A; format: cell-based, human; details: Fig. 2f
Procedure: Ghrelin residues are labeled in orange. […] GHSR bound to ibutamoren is colored green. Ibutamoren is shown as yellow sticks. e Ibutamoren binding pocket. f Dose-dependent action of ibutamoren on wtGHSR and mutants. In c and f, agonist-induced GHSR signaling was measured by Ca^2+ mobilization assay. Each data point represents mean ± S.D. from three independent assays. Polar interactions are shown as dashed lines in (a, b, and e).
as §4, with “Mutant variants were then generated by site-directed mutagenesis and all mutants were fully sequenced. Various GHSR constructs were transfected to HEK-293T cells using FuGENE Transfection Reagent (Promega).” left out
as §5, with “Cells were then washed twice with HBSS buffer and left at room temperature in 50 μL HBBS.” left out, “Results were presented as mean ± S.D. from three independent experiments.” left out

GHSR [7] = details: cited from earlier work
Excerpt: It mainly signals through the growth hormone secretagogue receptor (GHSR, or ghrelin receptor), a class A G protein-coupled receptor (GPCR). […] The GHSR and Gi signaling ...

wild type GHSR [8] = assay: GTP turnover assay for Gi catalyzed by GHSR in nanodiscs; format: biochemical, human
Excerpt: as §2
as §3, with “sticks. (b) GTP turnover for Gi catalyzed by wild type GHSR in nanodiscs containing 10%” for “sticks.”
normalized to that obtained for the G protein in the absence of receptor (Gi panels), and data is mean ± SD of five experiments. Statistical values were obtained by means of two-sided […]
loaded receptor, respectively). […]
the absence or presence of 10% cholesterol (molar ratio) into the lipid discs. Each data point represents mean ± SD of three experiments.
(1 picture or pasted object on this page, not shown here)

[9] = reconstituted lipid nanodiscs, 10% cholesterol

## ghrelin: 28-amino acid orexigenic peptide hormone; octanoylation at position-3 serine; endogenous GHSR agonist (Tocris) (GSS(Octanoyl)FLSPEHQRVQQRKESKKPPAKLQPR; UniProt Q9UBU3 24-51, looked up)
GHSR mutants [1]; E124 and R283 to alanine or glutamine
  ghrelin binding, effect of salt bridge mutations: could almost abolish ghrelin binding
GHSR mutants [1]; individual mutations I178, L181, F286 to alanine
  affinity of GHSR for ghrelin, effect of alanine mutations: decreased affinity of GHSR for ghrelin
[2]
  glucose-induced insulin release: attenuated glucose-induced insulin release
Wild type GHSR [3]; 10% cholesterol vs none, lipid discs
  decrease of Kd value for ghrelin in the presence of cholesterol: about 2 fold
GHSR mutants [4]; I297P, A298P, Q299P, I300P vs wtGHSR, 3 independent assays
  EC50 of ghrelin in inducing GHSR signaling, effect of the four TM7 proline mutations: didn't significantly affect the EC50s of ghrelin
GHSR mutants [4]; individual residues E297 to I300 to proline, Supplementary Fig. 4b
  agonistic action of ghrelin, effect of proline mutations at the extracellular end of TM7: didn't significantly affect the agonistic action of ghrelin; also recorded: not critical for the agonistic action of ghrelin
GHSR mutants [4]; mutations to larger or polar residues, Fig. 2c
  GHSR signaling induced by ghrelin, effect of mutations of hydrophobic residues in cavity II: compromised GHSR signaling induced by ghrelin
GHSR [5]
  growth hormone secretion and food intake: stimulates growth hormone secretion and food intake
GHSR mutants [6]; individual mutations in the aromatic cluster
  potency of ghrelin in activating GHSR, effect of mutations F279, F312, W276: significantly lowered the potency of ghrelin
GHSR mutants [6]; individual mutations to non-polar residues
  potency of ghrelin, effect of mutations E124, R283, Q120: decreased potency of ghrelin

## CC(C)(N)C(=O)N[C@H](COCc1ccccc1)C(=O)N1CCC2(CC1)CN(S(C)(=O)=O)c1ccccc12 [ibutamoren]
GHSR mutant R102A
  action of ibutamoren, effect of mutation of R102: compromised action of ibutamoren

## Liver expressed antimicrobial peptide 2 (LEAP2): Liver expressed antimicrobial peptide 2, GHSR inverse agonist or antagonist (MTPFWRGVSLRPIGASCRDDSECITRLCRKRRCSLSVAQE; UniProt Q969E1 38-77, looked up)
GHSR [7]
  pharmacological character at GHSR: GHSR inverse agonist or antagonist

## CC(C)CCC[C@@H](C)[C@H]1CC[C@H]2[C@@H]3CC=C4C[C@@H](O)CC[C@]4(C)[C@H]3CC[C@]12C [cholesterol]
Wild type GHSR [8]; 10% cholesterol (molar ratio), with and without 10 µM ghrelin, five experiments
  effect of cholesterol on GHSR-induced Gi activation: subtle but significant positive effects
Wild type GHSR [8]; no ligand, lower amplitude than in the presence of ghrelin
  effect of cholesterol on basal activity (GTP turnover): statistically significant effect
Wild type GHSR [8]; [9]
  effect of cholesterol on activity of GHSR: positively regulate
Wild type GHSR [3]; 10% cholesterol, lipid discs (peer review file)
  effect of cholesterol on affinity of GHSR for ghrelin: slightly increase the affinity of GHSR for ghrelin
Wild type GHSR [3]; [9]
  effect of cholesterol on binding of ghrelin to GHSR: positively regulate the binding of ghrelin to GHSR

## Cc1cc(-c2ccc3c(c2)CC[C@H]3N2CC3(CCN(C(=O)Cc4cn5cc(C)sc5n4)CC3)C2)ncn1 [PF-5190457]
GHSR [7]
  pharmacological character at GHSR: GHSR inverse agonist
